pEC50, pIC50: −log10 of the molar value. Like-named read-outs stand apart in the source and are kept apart here.
How the values were obtained:
[1] = test system: vector-only (V/O) CHO-K1 cells; experiment: Dose-response dual-addition calcium fluorescence assay on vector-only cells; assay type: cell-based; conditions: for pIC50: read-out: V/O antagonist IC50
[2] = test system: R. microplus kinin receptor; experiment: High-throughput dual-addition calcium fluorescence screen on BMLK3 cells; assay type: cell-based, Rhipicephalus microplus; conditions: for antagonist Io (%): compound 2 μmol L^−1, 5 min, then FFFSWGa 500 nmol L^−1; for agonist NPA (%): compound 2 μmol L^−1, first addition, relative to FFFSWGa 500 nmol L^−1
[3] = target: recombinant tick kinin receptor (BMLK3) (Rhipicephalus microplus, UniProt Q9NHA4); experiment: Dose-response dual-addition calcium fluorescence assay on BMLK3 cells; assay type: cell-based; conditions: for validation mark in dose-response assay: Table 3; for pEC50: read-out: BMLK3 EC50
[4] = V/O cells, second addition Rhimi-K-1 1 μmol L^−1
[5] = first addition, 20 concentrations 28 nM-25 μM
[6] = second addition Rhimi-K-1 1 μmol L^−1, read-out: BMLK3 IC50
[7] = virtual hit molecules, dual-addition assay, vector-only cell (V/O)
[8] = virtual hit molecules, dual-addition assay, recombinant tick kinin receptor (BMLK3) cells
[9] = virtual hit molecules, dual-addition assay, recombinant tick kinin receptor (BMLK3) cells, read-out: BMLK3 antagonist IC50

recombinant tick kinin receptor (BMLK3), sequence (Q9NHA4 entry or part of it): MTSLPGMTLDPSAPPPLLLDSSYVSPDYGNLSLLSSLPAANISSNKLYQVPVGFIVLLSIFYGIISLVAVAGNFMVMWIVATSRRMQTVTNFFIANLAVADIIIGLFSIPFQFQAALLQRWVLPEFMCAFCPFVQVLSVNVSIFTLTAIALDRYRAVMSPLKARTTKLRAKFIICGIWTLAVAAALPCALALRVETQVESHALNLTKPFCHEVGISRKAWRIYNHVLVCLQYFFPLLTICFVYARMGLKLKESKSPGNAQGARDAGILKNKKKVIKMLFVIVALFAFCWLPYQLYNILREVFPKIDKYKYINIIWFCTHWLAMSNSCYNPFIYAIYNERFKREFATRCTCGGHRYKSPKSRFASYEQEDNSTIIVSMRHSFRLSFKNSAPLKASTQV

Compound	pEC50 ([1]; V/O cells, first addition)	pIC50 [1, 4]	antagonist Io (%) [2]	validation mark in dose-response assay [3]	pEC50 [3, 5]	pIC50 [3, 6]	pEC50 [1, 7]	pIC50 [1, 7]	pEC50 [3, 8]	pIC50 [3, 9]	agonist NPA (%) [2]
O=C(CSC1=NCCS1)c1ccc(Cl)cc1 [SACC-0064624]	< 4.60	< 4.60	76%	*** (molecules which are either off-target or of low activity (<25 μM))	6.30	6.68	–	–	–	–	–
CCCC1=CC(=C2NNC(C)=C2c2ccc(C(=O)OCC)o2)C(O)=CC1=O [SACC-0048694]	5.16	4.76	65%	*** (molecules which are either off-target or of low activity (<25 μM))	6.55	< 4.60	–	–	–	–	–
CCC(CO)Nc1nc(CN2CCCCC2)nc2scc(-c3ccccc3)c12 (stereo not shown) [SACC-0046099]	–	–	–	–	–	–	5.45	5.61	< 4.60	5.08	–
COc1ccc(-c2nc(CN3CCN(C(=O)c4ccc5c(c4)NC(=O)[C@H](C)S5)CC3)cs2)cc1 [SACC-0088454]	< 4.60	4.84	57%	*** (molecules which are either off-target or of low activity (<25 μM))	< 4.60	< 4.60	–	–	–	–	–
O=C(Nc1ccc(I)cc1)C(Cl)(Cl)Cl [SACC-0062945]	7.22	5.42	–	*** (molecules which are either off-target or of low activity (<25 μM))	> 7.55	6.89	–	–	–	–	61%
Cc1cc2ncn(CCCCSc3ccccc3)c2cc1C [SACC-0025692]	5.02	6.95	42%	*** (molecules which are either off-target or of low activity (<25 μM))	< 4.60	6.12	–	–	–	–	–
Cc1cc(C(C)(C)C)cc(C)c1CSC(=N)N [SACC-0029825]	5.26	5.01	–	*** (molecules which are either off-target or of low activity (<25 μM))	5.16	> 7.55	–	–	–	–	70%
N#CC(=C(O)c1ccc(-c2ccc(Cl)cc2Cl)o1)c1nc2ccccc2c(=O)[nH]1 [SACC-0112961]	–	–	–	–	–	–	6.61	< 4.60	< 4.60	> 7.55	–
CN1/C(=C/C=C/c2ccc3ccccc3[n+]2C)C=Cc2ccccc21 [SACC-0072383]	–	–	–	–	–	–	6.53	< 4.60	6.49	6.30	–
Cc1ccc(S(=O)(=O)Nc2nc(CN3CCCC3)nc3sc(C)c(C)c23)cc1 [SACC-0025777]	–	–	–	–	–	–	5.80	< 4.60	< 4.60	6.97	–
COC(=O)c1cc2c(s1)Oc1cc(C(F)(F)F)ccc1C(=S)N2 [SACC-0081272]	7.31	< 4.60	74%	*** (molecules which are either off-target or of low activity (<25 μM))	5.83	> 7.55	–	–	–	–	–
Cc1nc(C)c(C(=O)N(Cc2ccco2)C2CCN(c3ccc4c(c3)OCO4)CC2)s1 [SACC-0040154]	6.92	5.91	–	*** (molecules which are either off-target or of low activity (<25 μM))	4.88	5.51	–	–	–	–	81%
NC(N)=N/C(N)=N\c1ccc(Br)cc1 [SACC-0108986]	6.88	5.41	53%	*** (molecules which are either off-target or of low activity (<25 μM))	6.16	6.44	–	–	–	–	–
O=C(O)COc1ccccn1 [SACC-0126930]	6.12	> 7.55	–	*** (molecules which are either off-target or of low activity (<25 μM))	> 7.55	< 4.60	–	–	–	–	133%
O=C(c1ccco1)N1CCN(c2cccc3scc(-c4cccs4)c23)CC1 [SACC-0117388]	–	–	–	–	–	–	5.75	5.08	6.91	4.88	–
c1ccc(-c2csc3ncnc(N4CCCC4c4cccnc4)c23)cc1 (stereo not shown) [SACC-0011206]	–	–	–	–	–	–	4.76	6.01	< 4.60	5.18	–
C=CCn1cnnc1SCC1CC1(Cl)Cl (stereo not shown) [SACC-0063031]	4.77	5.35	80%	*** (molecules which are either off-target or of low activity (<25 μM))	6.61	6.62	–	–	–	–	–
Cc1cccc(NC(=O)c2c(F)c(F)c(F)c(F)c2F)n1 [SACC-0037442]	< 4.60	5.14	52%	*** (molecules which are either off-target or of low activity (<25 μM))	5.11	> 7.55	–	–	–	–	–
CC(C)(C)c1ccc(C(=O)NNC(=S)NC(=O)c2cccnc2)cc1 [SACC-0015467]	5.46	5.15	–	*** (molecules which are either off-target or of low activity (<25 μM))	5.36	5.20	–	–	–	–	70%
COc1ccc(C=Nn2c(C(F)(F)F)n[nH]c2=S)cc1 [SACC-0087120]	–	–	–	–	–	–	5.50	< 4.60	5.95	> 7.55	–
S=C(NCc1ccccc1)NN=C1CCC(c2ccccc2)CC1 (stereo not shown) [SACC-0131532]	–	–	–	–	–	–	< 4.60	< 4.60	4.78	5.85	–
Cc1nc(-c2ccc(CNc3ncnc4sccc34)o2)cs1 [SACC-0039825]	–	–	–	–	–	–	< 4.60	6.48	> 7.55	5.09	–
CCN(CC)c1ccc2cc(C(N)=O)c(=NNC(=O)c3cccs3)oc2c1 [SACC-0052578]	< 4.60	< 4.60	–	*** (molecules which are either off-target or of low activity (<25 μM))	< 4.60	< 4.60	–	–	–	–	166%
CC1=CC(=NNC(=S)NCc2ccccc2)CC1 [SACC-0029249]	–	–	–	–	–	–	< 4.60	> 7.55	< 4.60	5.73	–
c1ccc(-c2csc3ncnc(Nc4ccc5c(c4)OCCO5)c23)cc1 [SACC-0011565]	–	–	–	–	–	–	< 4.60	5.91	7.38	< 4.60	–
CCc1cc2c(NCc3ccco3)nc(C)nc2s1 [SACC-0047526]	–	–	–	–	–	–	< 4.60	< 4.60	< 4.60	< 4.60	–
Clc1ccc(-c2csc3ncnc(N4CCN(c5ccccn5)CC4)c23)cc1 [SACC-0064924]	–	–	–	–	–	–	4.92	< 4.60	4.76	> 7.55	–
COc1cc2c(cc1OC)CN(c1ncnc3scc(-c4ccc(Cl)cc4)c13)CC2 [SACC-0095849]	–	–	–	–	–	–	6.41	6.04	< 4.60	5.07	–
C=CCNC(=S)NNC1=CC[C@@H](c2ccccc2)CC1 [SACC-0010978]	–	–	–	–	–	–	7.17	4.91	< 4.60	5.01	–
O=[N+]([O-])c1ccc2nc(Nc3ccc(Br)cc3)c(Nc3ccc(Br)cc3)nc2c1 [SACC-0005102]	–	–	–	–	–	–	6.31	6.75	5.97	7.08	–
